Reference: BindingDB's records for doi:10.1016/j.jmb.2005.09.095 (Georgia State University, 2005)
Starred links: 1 amine or outer side, 2 acyl side, 3 side chain; linkers in the order of their positions; H or OH if unused. Non-standard residues stand in square brackets, D forms with d. Residues, ends and D or L forms follow the SMILES beside them. Groups on a side chain read outwards from the residue. N(2S-amino-4-Me-pentyl)Phe = CC(C)C[C@@H](CN([C@@H](Cc1ccccc1)C(=O)[*:2])[*:1])N[*:3]; Nle = CCCC[C@H](N)C(=O)O

Columns and labels:
Assay in all cases: Protease Inhibition Assay
Settings in all cases: pH 5; 22 °C
[1] = biological target: T1, Dimer of Gag-Pol polyprotein [501-599,Q508K,L534I,L564I,C568A,C596A,L525I] (Human immunodeficiency virus 1, UniProt P03367, C568A/C596A/L525I/L534I/L564I/Q508K)
T1 construct: 501-599
Description: (§1) The Ki values were obtained from the IC50 values estimated from an inhibitor dose-response curve with the spectroscopic assay and the chromogenic substrate.

[2] = biological target: T2, Dimer of Gag-Pol polyprotein [501-599,Q508K,L534I,L564I,C568A,C596A,I551V] (Human immunodeficiency virus 1, UniProt P03367, C568A/C596A/I551V/L534I/L564I/Q508K)
T2 construct: 501-599
Description: as §1

[3] = biological target: T3, Dimer of Gag-Pol polyprotein [501-599,Q508K,L534I,L564I,C568A,C596A] (Human immunodeficiency virus 1, UniProt P03367, C568A/C596A/L534I/L564I/Q508K)
T3 construct: 501-599
Description: as §1

[4] = biological target: T4, Dimer of Gag-Pol polyprotein [501-599,Q508K,L534I,L564I,C568A,C596A,G574S] (Human immunodeficiency virus 1, UniProt P03367, C568A/C596A/G574S/L534I/L564I/Q508K)
T4 construct: 501-599
Description: as §1

**Q.** For CCCC[C@H](NC(=O)[C@H](C)NC(=O)[C@H](CCC(=O)O)NC(=O)[C@H](Cc1ccccc1)NC[C@H](CC(C)C)NC(=O)[C@@H](NC(=O)[C@@H](N)CCCNC(=N)N)C(C)C)C(N)=O [N-1270] (H-[N(2S-amino-4-Me-pentyl)Phe]([Val-Arg])EA[Nle]-NH2), which Ki [1] is on record?
**A.** 3.5 nM

**Q.** And the Ki [2]?
**A.** 230 nM

**Q.** And the Ki [3]?
**A.** 75 nM

**Q.** What about the Ki [4] of the same compound?
**A.** 330 nM
